# Assay results as given in article PMC9532703, “A novel small molecule RK-019 inhibits FGFR2-amplification gastric cancer cell proliferation and induces apoptosis in vitro and in vivo” (Frontiers in Pharmacology, 2022).
# Tests used:
# Test in all cases: Kinase selectivity panel
# Format in all cases: biochemical
# Details in all cases: read-out: Inhibition(%) @ 1 µM RK-019
# Abl (H396P) (h) = molecular target: T1, Abl (H396P) (h) (Homo sapiens, UniProt P00519, H396P)
# T1 construct: purchased Eurofins Discovery Services (KinaseProfiler)
# How it was run: (§1)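 The compound is tested at a fixed 1 µM in an in vitro binding assay based on competition at the ATP site of recombinant human kinase. Inhibition ratio is reported.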
# BMPR2(h) = molecular target: T2, BMPR2(h) (Homo sapiens, UniProt Q13873)
# T2 construct: purchased Eurofins Discovery Services (KinaseProfiler)
# How it was run: as §1
# CHK1(h) = molecular target: T3, CHK1(h) (Homo sapiens, UniProt O14757)
# T3 construct: purchased Eurofins Discovery Services (KinaseProfiler)
# How it was run: as §1
# CHK2(h) = molecular target: T4, CHK2(h) (Homo sapiens, UniProt O96017)
# T4 construct: purchased Eurofins Discovery Services (KinaseProfiler)
# T4 sequence (O96017 whole entry): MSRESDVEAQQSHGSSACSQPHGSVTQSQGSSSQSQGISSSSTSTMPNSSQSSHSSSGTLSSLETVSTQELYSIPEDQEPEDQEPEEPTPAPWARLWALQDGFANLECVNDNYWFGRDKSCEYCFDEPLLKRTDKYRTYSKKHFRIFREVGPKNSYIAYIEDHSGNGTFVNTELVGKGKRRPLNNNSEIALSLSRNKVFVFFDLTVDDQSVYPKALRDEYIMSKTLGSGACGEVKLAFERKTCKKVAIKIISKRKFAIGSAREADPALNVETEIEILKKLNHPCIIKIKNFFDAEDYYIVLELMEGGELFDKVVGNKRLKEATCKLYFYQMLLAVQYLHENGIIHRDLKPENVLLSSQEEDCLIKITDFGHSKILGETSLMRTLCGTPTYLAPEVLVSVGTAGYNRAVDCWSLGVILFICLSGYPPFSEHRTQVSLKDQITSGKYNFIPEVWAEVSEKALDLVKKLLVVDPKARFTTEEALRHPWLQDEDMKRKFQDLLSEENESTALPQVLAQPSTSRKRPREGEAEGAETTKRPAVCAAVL
# How it was run: as §1
# CLK1(h) = molecular target: T5, CLK1(h) (Homo sapiens, UniProt P49759)
# T5 construct: purchased Eurofins Discovery Services (KinaseProfiler)
# How it was run: as §1
# CaMKIIβ(h) = molecular target: T6, CaMKIIβ(h) (Homo sapiens, UniProt Q13554)
# T6 construct: purchased Eurofins Discovery Services (KinaseProfiler)
# How it was run: as §1
# CaMKK1(h) = molecular target: T7, CaMKK1(h) (Homo sapiens, UniProt Q8N5S9)
# T7 construct: purchased Eurofins Discovery Services (KinaseProfiler)
# How it was run: as §1
# DYRK1B(h) = molecular target: T8, DYRK1B(h) (Homo sapiens, UniProt Q9Y463)
# T8 construct: purchased Eurofins Discovery Services (KinaseProfiler)
# T8 sequence (Q9Y463 whole entry): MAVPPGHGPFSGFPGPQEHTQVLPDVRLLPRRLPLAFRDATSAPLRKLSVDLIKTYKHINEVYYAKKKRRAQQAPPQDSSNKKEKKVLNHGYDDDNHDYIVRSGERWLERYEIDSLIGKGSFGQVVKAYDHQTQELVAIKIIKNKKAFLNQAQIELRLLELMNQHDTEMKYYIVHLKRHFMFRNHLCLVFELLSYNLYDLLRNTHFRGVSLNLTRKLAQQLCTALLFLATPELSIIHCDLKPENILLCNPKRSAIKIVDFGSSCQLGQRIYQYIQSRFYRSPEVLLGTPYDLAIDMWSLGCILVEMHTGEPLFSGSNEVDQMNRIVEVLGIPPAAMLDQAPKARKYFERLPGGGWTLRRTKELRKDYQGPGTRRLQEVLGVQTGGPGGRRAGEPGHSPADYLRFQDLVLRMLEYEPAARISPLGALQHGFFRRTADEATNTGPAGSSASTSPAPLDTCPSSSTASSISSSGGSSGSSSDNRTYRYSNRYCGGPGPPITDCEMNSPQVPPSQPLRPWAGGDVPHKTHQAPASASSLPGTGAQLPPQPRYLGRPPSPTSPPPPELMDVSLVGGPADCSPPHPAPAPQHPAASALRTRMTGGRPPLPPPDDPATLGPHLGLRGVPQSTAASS
# How it was run: as §1
# Flt1(h) = molecular target: T9, Flt1(h) (Homo sapiens, UniProt P17948)
# T9 construct: purchased Eurofins Discovery Services (KinaseProfiler)
# How it was run: as §1
# GSK3β(h) = molecular target: T10, GSK3β(h) (Homo sapiens, UniProt P49841)
# T10 construct: purchased Eurofins Discovery Services (KinaseProfiler)
# How it was run: as §1
# IGF-1R(h), activated = molecular target: T11, IGF-1R(h), activated (Homo sapiens, UniProt P08069)
# T11 construct: purchased Eurofins Discovery Services (KinaseProfiler)
# How it was run: as §1
# IRE1(h) = molecular target: T12, IRE1(h) (Homo sapiens, UniProt O75460)
# T12 construct: purchased Eurofins Discovery Services (KinaseProfiler)
# How it was run: as §1
# Itk(h) = molecular target: T13, Itk(h) (Homo sapiens, UniProt Q08881)
# T13 construct: purchased Eurofins Discovery Services (KinaseProfiler)
# How it was run: as §1
# MEK1(h) = molecular target: T14, MEK1(h) (Homo sapiens, UniProt Q02750)
# T14 construct: purchased Eurofins Discovery Services (KinaseProfiler)
# T14 sequence (Q02750 whole entry): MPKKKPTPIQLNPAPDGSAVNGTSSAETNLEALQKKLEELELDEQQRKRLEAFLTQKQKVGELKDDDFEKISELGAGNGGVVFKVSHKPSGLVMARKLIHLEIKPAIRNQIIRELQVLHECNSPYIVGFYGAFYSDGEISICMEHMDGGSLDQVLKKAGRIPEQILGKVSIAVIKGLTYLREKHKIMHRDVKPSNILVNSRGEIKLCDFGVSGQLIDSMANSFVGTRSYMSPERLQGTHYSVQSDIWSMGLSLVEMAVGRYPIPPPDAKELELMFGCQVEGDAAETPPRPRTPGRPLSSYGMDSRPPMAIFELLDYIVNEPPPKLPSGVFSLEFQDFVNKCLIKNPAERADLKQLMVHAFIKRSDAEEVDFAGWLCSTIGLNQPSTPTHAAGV
# How it was run: as §1
# MSK2(h) = molecular target: T15, MSK2(h) (Homo sapiens, UniProt O75676)
# T15 construct: purchased Eurofins Discovery Services (KinaseProfiler)
# T15 sequence (O75676 whole entry): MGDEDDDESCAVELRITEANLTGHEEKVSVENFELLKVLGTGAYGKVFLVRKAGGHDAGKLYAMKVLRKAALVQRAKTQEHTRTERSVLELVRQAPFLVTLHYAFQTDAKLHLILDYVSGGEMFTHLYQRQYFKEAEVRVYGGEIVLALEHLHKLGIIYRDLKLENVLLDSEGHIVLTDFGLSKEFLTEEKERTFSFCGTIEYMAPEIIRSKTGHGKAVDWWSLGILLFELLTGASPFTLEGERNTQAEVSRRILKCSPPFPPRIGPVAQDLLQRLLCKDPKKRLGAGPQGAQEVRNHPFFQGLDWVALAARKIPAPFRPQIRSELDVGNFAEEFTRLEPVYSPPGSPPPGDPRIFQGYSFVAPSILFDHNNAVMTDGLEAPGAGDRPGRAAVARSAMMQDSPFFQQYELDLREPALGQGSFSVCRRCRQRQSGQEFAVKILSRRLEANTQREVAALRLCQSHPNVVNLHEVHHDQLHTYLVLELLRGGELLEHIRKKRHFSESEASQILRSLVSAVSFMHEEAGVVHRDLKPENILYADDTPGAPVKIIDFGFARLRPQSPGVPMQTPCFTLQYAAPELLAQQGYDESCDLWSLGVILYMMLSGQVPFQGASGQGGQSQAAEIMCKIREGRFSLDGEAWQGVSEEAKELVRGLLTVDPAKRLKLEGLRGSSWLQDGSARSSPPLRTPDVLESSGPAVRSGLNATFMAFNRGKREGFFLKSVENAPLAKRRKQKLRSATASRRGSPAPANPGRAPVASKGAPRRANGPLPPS
# How it was run: as §1
# MST3(h) = molecular target: T16, MST3(h) (Homo sapiens, UniProt Q9Y6E0)
# T16 construct: purchased Eurofins Discovery Services (KinaseProfiler)
# How it was run: as §1
# Met(h) = molecular target: T17, Met(h) (Homo sapiens, UniProt P08581)
# T17 construct: purchased Eurofins Discovery Services (KinaseProfiler)
# How it was run: as §1
# NEK2(h) = molecular target: T18, NEK2(h) (Homo sapiens, UniProt P51955)
# T18 construct: purchased Eurofins Discovery Services (KinaseProfiler)
# How it was run: as §1
# NEK3(h) = molecular target: T19, NEK3(h) (Homo sapiens, UniProt P51956)
# T19 construct: purchased Eurofins Discovery Services (KinaseProfiler)
# How it was run: as §1
# NEK4(h) = molecular target: T20, NEK4(h) (Homo sapiens, UniProt P51957)
# T20 construct: purchased Eurofins Discovery Services (KinaseProfiler)
# T20 sequence (P51957 whole entry): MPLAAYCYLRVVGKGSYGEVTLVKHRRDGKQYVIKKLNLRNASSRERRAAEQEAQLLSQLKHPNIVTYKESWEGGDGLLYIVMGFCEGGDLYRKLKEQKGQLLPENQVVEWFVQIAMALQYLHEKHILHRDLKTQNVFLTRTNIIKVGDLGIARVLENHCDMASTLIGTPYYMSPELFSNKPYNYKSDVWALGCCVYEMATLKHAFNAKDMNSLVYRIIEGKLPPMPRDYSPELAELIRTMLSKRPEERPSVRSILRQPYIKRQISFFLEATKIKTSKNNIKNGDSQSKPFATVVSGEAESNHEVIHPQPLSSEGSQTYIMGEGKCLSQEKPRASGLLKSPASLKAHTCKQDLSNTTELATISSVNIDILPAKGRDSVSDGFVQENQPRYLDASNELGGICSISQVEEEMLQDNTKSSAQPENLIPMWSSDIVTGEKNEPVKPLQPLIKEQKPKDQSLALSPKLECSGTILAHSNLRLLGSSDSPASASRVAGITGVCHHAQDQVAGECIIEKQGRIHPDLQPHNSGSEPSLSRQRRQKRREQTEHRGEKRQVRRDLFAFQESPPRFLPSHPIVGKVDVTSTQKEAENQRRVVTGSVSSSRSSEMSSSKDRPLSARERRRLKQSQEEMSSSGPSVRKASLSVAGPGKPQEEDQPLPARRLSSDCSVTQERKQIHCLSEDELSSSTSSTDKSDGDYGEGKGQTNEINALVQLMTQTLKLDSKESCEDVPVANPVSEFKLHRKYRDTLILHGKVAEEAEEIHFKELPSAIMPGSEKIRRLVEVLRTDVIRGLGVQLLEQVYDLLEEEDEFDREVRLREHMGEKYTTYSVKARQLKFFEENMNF
# How it was run: as §1
# PAR-1Bα(h) = molecular target: T21, PAR-1Bα(h) (Homo sapiens, UniProt Q7KZI7)
# T21 construct: purchased Eurofins Discovery Services (KinaseProfiler)
# T21 sequence (Q7KZI7 1-725 isoform Q7KZI7-4): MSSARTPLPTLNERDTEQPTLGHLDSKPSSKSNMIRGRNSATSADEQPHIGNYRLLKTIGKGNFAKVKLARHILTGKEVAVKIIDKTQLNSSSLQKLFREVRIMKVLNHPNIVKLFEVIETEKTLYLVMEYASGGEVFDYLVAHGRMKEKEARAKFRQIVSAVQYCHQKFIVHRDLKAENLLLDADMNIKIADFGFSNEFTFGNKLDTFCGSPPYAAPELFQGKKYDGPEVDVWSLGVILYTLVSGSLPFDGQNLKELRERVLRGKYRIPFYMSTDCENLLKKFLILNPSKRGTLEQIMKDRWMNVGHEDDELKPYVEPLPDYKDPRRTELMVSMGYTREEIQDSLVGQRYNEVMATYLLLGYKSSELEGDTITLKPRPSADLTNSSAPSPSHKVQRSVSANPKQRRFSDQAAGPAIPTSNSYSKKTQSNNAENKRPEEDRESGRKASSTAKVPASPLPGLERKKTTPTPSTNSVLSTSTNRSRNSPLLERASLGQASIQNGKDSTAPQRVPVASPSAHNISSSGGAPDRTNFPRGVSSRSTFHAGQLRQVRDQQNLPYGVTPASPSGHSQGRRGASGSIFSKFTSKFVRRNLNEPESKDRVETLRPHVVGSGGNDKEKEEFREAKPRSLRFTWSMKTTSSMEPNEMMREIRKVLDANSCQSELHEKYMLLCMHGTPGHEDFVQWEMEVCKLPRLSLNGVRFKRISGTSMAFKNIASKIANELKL
# How it was run: as §1
# PEK(h) = molecular target: T22, PEK(h) (Homo sapiens, UniProt Q9NZJ5)
# T22 construct: purchased Eurofins Discovery Services (KinaseProfiler)
# How it was run: as §1
# [1] = molecular target: T23, PI3 Kinase (p110a(E542K)/p85a)(h) (Homo sapiens, UniProt P42336, E542K)
# T23 construct: purchased Eurofins Discovery Services (KinaseProfiler)
# How it was run: as §1
# [2] = molecular target: T24, PI3 Kinase (p110a/p65a)(m) (Mus musculus, UniProt P42337)
# T24 construct: purchased Eurofins Discovery Services (KinaseProfiler)
# PI3KC2a(h) = molecular target: T25, PI3KC2a(h) (Homo sapiens, UniProt O00443)
# T25 construct: purchased Eurofins Discovery Services (KinaseProfiler)
# How it was run: as §1
# PIP5K1g(h) = molecular target: T26, PIP5K1g(h) (Homo sapiens, UniProt O60331)
# T26 construct: purchased Eurofins Discovery Services (KinaseProfiler)
# How it was run: as §1
# PKA(h) = molecular target: T27, PKA(h) (Homo sapiens, UniProt P17612)
# T27 construct: purchased Eurofins Discovery Services (KinaseProfiler)
# How it was run: as §1
# PKCα(h) = molecular target: T28, PKCα(h) (Homo sapiens, UniProt P17252)
# T28 construct: purchased Eurofins Discovery Services (KinaseProfiler)
# How it was run: as §1
# PKD2(h) = molecular target: T29, PKD2(h) (Homo sapiens, UniProt Q9BZL6)
# T29 construct: purchased Eurofins Discovery Services (KinaseProfiler)
# How it was run: as §1
# ROCK-I(h) = molecular target: T30, ROCK-I(h) (Homo sapiens, UniProt Q13464)
# T30 construct: purchased Eurofins Discovery Services (KinaseProfiler)
# How it was run: as §1
# Rse(h) = molecular target: T31, Rse(h) (Homo sapiens, UniProt Q06418)
# T31 construct: purchased Eurofins Discovery Services (KinaseProfiler)
# T31 sequence (Q06418 41-890): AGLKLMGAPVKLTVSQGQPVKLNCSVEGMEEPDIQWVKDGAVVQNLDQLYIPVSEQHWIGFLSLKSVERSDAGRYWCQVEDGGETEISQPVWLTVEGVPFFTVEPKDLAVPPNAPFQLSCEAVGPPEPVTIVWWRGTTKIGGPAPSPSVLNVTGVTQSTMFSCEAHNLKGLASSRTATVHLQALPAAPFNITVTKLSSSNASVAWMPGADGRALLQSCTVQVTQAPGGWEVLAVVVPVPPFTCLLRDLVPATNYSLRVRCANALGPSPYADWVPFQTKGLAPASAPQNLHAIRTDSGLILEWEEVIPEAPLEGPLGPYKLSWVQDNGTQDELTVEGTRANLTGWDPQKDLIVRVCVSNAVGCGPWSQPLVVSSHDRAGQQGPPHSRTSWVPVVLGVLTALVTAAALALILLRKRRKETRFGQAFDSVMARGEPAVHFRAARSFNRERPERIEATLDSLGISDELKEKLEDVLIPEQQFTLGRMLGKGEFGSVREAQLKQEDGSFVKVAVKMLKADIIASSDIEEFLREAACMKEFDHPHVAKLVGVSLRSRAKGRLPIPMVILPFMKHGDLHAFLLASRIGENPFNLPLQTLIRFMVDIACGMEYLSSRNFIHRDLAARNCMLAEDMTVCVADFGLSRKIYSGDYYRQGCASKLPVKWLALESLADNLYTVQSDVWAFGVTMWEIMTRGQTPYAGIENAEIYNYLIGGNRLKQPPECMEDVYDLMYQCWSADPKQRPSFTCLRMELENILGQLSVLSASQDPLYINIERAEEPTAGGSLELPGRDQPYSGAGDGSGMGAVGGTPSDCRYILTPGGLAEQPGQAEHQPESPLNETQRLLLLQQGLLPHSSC
# How it was run: as §1
# SGK(h) = molecular target: T32, SGK(h) (Homo sapiens, UniProt O00141)
# T32 construct: purchased Eurofins Discovery Services (KinaseProfiler)
# How it was run: as §1
# SIK2(h) = molecular target: T33, SIK2(h) (Homo sapiens, UniProt Q9H0K1)
# T33 construct: purchased Eurofins Discovery Services (KinaseProfiler)
# How it was run: as §1
# TAF1L(h) = molecular target: T34, TAF1L(h) (Homo sapiens, UniProt Q8IZX4)
# T34 construct: purchased Eurofins Discovery Services (KinaseProfiler)
# How it was run: as §1
# TTBK1(h) = molecular target: T35, TTBK1(h) (Homo sapiens, UniProt Q5TCY1)
# T35 construct: purchased Eurofins Discovery Services (KinaseProfiler)
# How it was run: as §1
# TrkC(h) = molecular target: T36, TrkC(h) (Homo sapiens, UniProt Q16288)
# T36 construct: purchased Eurofins Discovery Services (KinaseProfiler)
# How it was run: as §1
# ZIPK(h) = molecular target: T37, ZIPK(h) (Homo sapiens, UniProt O43293)
# T37 construct: purchased Eurofins Discovery Services (KinaseProfiler)
# How it was run: as §1
compound,measurement,setting,value
"COc1cc(OC)cc(N(CCN[C@H](C)CO)c2ccc3ncc(-c4cnn(C)c4)c(=O)n3c2)c1 [RK-019, (R)-7-((3,5-dimethoxyphenyl) (2-((1-hydroxypropan-2-yl)amino)ethyl)amino)-3-(1-methyl-1H-pyrazol-4-yl)-4H-pyrido [1,2-a]pyrimidin-4-one]",activity at 1 µM,Abl (H396P) (h),49%
same,activity at 1 µM,BMPR2(h),116%
same,activity at 1 µM,CHK1(h),90%
same,activity at 1 µM,CHK2(h),96%
same,activity at 1 µM,CLK1(h),104%
same,activity at 1 µM,CaMKIIβ(h),80%
same,activity at 1 µM,CaMKK1(h),105%
same,activity at 1 µM,DYRK1B(h),97%
same,activity at 1 µM,Flt1(h),29%
same,activity at 1 µM,GSK3β(h),96%
same,activity at 1 µM,"IGF-1R(h), activated",101%
same,activity at 1 µM,IRE1(h),93%
same,activity at 1 µM,Itk(h),104%
same,activity at 1 µM,MEK1(h),79%
same,activity at 1 µM,MSK2(h),101%
same,activity at 1 µM,MST3(h),122%
same,activity at 1 µM,Met(h),97%
same,activity at 1 µM,NEK2(h),80%
same,activity at 1 µM,NEK3(h),87%
same,activity at 1 µM,NEK4(h),109%
same,activity at 1 µM,PAR-1Bα(h),92%
same,activity at 1 µM,PEK(h),85%
same,activity at 1 µM,[1],98%
same,activity at 1 µM,[2],100%
same,activity at 1 µM,PI3KC2a(h),104%
same,activity at 1 µM,PIP5K1g(h),97%
same,activity at 1 µM,PKA(h),94%
same,activity at 1 µM,PKCα(h),97%
same,activity at 1 µM,PKD2(h),98%
same,activity at 1 µM,ROCK-I(h),101%
same,activity at 1 µM,Rse(h),104%
same,activity at 1 µM,SGK(h),104%
same,activity at 1 µM,SIK2(h),99%
same,activity at 1 µM,TAF1L(h),100%
same,activity at 1 µM,TTBK1(h),90%
same,activity at 1 µM,TrkC(h),86%
same,activity at 1 µM,ZIPK(h),96%
